Like-named read-outs stand apart in the source and are kept apart here.
Key:
CYP79F1 = CYP79F1 (Arabidopsis thaliana, UniProt Q949U1, M2A); conditions: E. coli C43(DE3) spheroplasts, GC-MS or TLC
Experimental: In a typical enzyme assay, 5 μl spheroplasts and 4 μl NADPH:cytochrome P450 reductase (equivalent to 0.04 units defined as 1 μmol cytochrome c/min) are incubated with substrate in buffer containing 30 mM KPi, pH 7.5, 3 mM NADPH, 3 mM reduced glutathione, 0.042% Tween 80, 1 mg ml^−1 L-α-dilauroylphosphatidylcholine in a total volume of 30 μl. Reaction mixtures containing spheroplasts of E. coli C43(DE3) transformed with empty vector are used as controls in all assays. 3.3 μM L-[U-^14C]phenylalanine (453 mCi/mmol; Pharmacia), 3.7 μM L-[U-^14C]tyrosine (449 mCi/mmol; Pharmacia), 0.1 mM L-[methyl-^14C]methionine (56 mCi/mmol; Pharmacia), and 24 μM L-[side chain-3-^14C]tryptophan (56.5 mCi/mmol; NEN) are tested as potential substrates. After incubation at 28° C. for 1 hour, half of the reaction mixture is analyzed by TLC on Silica Gel 60 F254 sheets (Merck) using toluene/ethyl acetate 5:1 (v/v) as eluent. Radiolabelled bands are visualized and quantified using a STORM 840 phosphoimager (Pharmacia). For GC-MS analysis, 450 μl reaction mixture containing 3.3 mM L-methionine (Sigma), 3.3 mM DL-dihomomethionine or 3.3 mM DL-trihomomethionine, respectively, are incubated for 4 hours at 25° C. and extracted with a total volume of 600 μl CHCl3. The organic phase is collected, evaporated, and the residue is dissolved in 15 μl CHCl3 and analyzed by GC-MS. […] An SGE column (BPX5, 25 m×0.25 mm, 0.25 μm film thickness) is used (heat pressure 100 kPa, splitless injection). The oven temperature program is as follows: 80° C. for 3 minutes, 80° C. to 180° C. at 5° C. min^−1, 180° C. to 300° C. at 20° C. min^−1, and 300° C. for 10 min. The ion source is run in EI mode (70 eV) at 200° C. […] DL-dihomomethionine, DL-trihomomethionine, 5-methylthiopentanaldoxime and 6-methylthiohexanaldoxime are synthesized as described (Dawson et al, J. Biol. Chem. 268: 27154-27159, 1993) and authenticated by NMR spectroscopy.

CYP79A2 = target: T1, CYP79A2 (Arabidopsis thaliana, UniProt Q9FLC8); test: CYP79A2 activity in E. coli spheroplasts reconstituted with NADPH:cytochrome P450 oxidoreductase
T1 sequence (Q9FLC8 7-529 limits assumed): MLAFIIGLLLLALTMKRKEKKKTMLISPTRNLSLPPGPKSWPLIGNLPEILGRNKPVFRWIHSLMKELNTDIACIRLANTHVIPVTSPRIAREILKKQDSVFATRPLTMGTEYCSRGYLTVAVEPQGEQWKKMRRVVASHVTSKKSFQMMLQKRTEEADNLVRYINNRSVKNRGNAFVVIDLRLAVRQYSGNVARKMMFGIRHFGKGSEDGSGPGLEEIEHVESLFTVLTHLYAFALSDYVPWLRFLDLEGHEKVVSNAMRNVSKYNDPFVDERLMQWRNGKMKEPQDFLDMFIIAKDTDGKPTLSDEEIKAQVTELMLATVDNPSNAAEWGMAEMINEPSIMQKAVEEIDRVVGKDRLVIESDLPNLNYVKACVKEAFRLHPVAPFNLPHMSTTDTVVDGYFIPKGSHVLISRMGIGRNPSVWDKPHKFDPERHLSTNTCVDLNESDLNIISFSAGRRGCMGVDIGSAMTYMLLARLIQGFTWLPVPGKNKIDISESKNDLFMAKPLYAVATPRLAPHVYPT

CYP79B2 = target: T2, CYP79B2 (Arabidopsis thaliana, UniProt O81346); test: CYP79B2 activity in E. coli spheroplasts reconstituted with NADPH:cytochrome P450 reductase
T2 sequence (O81346 1-541): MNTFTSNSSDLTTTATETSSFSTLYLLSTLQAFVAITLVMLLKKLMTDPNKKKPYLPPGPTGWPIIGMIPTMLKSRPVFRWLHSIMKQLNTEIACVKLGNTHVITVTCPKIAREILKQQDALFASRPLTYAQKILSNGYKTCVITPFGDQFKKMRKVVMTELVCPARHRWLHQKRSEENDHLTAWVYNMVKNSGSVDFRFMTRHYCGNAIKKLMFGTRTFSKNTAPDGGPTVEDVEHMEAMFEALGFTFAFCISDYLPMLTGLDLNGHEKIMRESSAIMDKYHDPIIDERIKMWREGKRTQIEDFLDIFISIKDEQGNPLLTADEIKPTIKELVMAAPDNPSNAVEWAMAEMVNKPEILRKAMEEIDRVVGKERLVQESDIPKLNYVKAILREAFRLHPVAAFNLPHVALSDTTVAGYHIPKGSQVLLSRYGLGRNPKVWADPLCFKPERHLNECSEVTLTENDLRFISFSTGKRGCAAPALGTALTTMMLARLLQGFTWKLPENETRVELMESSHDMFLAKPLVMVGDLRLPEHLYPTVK
Experimental: The activity of CYP79B2 is measured by reconstituting spheroplasts from E. coli expressing CYP79B2 with purified NADPH:cytochrome P450 reductase from Sorghum bicolor (L.) Moench. […] The reaction is incubated at 34° C. for 30 minutes, extracted two times with ethyl acetate and the ethyl acetate phase is analyzed by TLC using toluen:ethyl acetate 5:1 as eluent. Radiolabelled bands are visualized on a Storm 840 phosphorimager (Molecular Dynamics) and quantified with ImageQuant analysis software (Molecular Dynamics). Substrate specificity is investigated by substituting the ^14C-labelled tryptophan with ^14C-labelled tyrosine or phenylalanine. GC-MS is employed to verify the structure of the compound produced from tryptophan by recombinant CYP79B2. A 450 μl reaction mixture as described above containing 2 mM unlabelled tryptophan is incubated at 34° C. for 2 hours. The reaction mixture is extracted twice with 300 μl CHCl3 and lyophilized until dryness. GC-MS is performed with an HP5890 Series II gas chromatograph coupled to a Jeol JMS-AX505W mass spectrometer. Splitless injection on an SGE column (BPX5, 25 mm×0.25 mm, 0.25 μm film thickness) and a head pressure of 100 kPa are used.
Single colonies are grown overnight at 37° C. in LB medium containing 100 μg/ml ampicillin. 1 ml of the overnight culture is used to inoculate 75 ml TB medium containing 100 μg/ml ampicillin, 75 μg/ml δ-aminolevulinic acid, 1 mM thiamine and 1 mM IPTG. The TB cultures are grown for 44 hours at 125 rpm and 28° C.

cassava microsomes = test: Metabolism of amino acids by cassava microsomes; assay type: biochemical; conditions: amino acid as substrate
CYP79D1 = CYP79D1 (Manihot esculenta, UniProt Q9M7B8); conditions: for inhibition of CYP79D1 val-oxime formation: reconstitution in presence of inhibitor
Experimental: Isolated, recombinant CYP79D1 is reconstituted and its catalytic activity determined in vitro using reaction mixtures with a total volume of 30 μl containing 2.5 pmol CYP79D1, 0.05 U NADPH P450-oxidoreductase (Benveniste et al, Biochem J 235: 365-373, 1986), 10.6 mM L-α-dioleyl phosphatidylcholine, 0.35 μCi [U-^14C]-L-amino acid (L-Val, L-Ile, L-Leu, L-Tyr or L-Phe; Amersham, Sweden), 1 mM NADPH, 0.1 M NaCl and 20 mM KPi pH 7.9. In assays containing ^14C-L-valine or ^14C-L-isoleucine, different amounts of unlabeled L- and D-amino acids (0-6 mM) are added. After incubation for 10 minutes at 30° C. the products formed are extracted into 60 μl ethyl acetate and separated on TLC sheets (Merck Kieselgel 60F254) using n-pentane/diethyl ether (50:50, v/v) or toluene/ethyl acetate (5:1, v/v) as eluents for aliphatic compounds and aromatic compounds, respectively. ^14C-labeled oximes are visualized and quantified using a STORM 840 phosphor imager (Molecular Dynamics, CA, USA). The activity of CYP79D1 is additionally measured in the presence of the inhibitors tetcyclasis, ABT and DPI under the same conditions as described above. For in vivo activity assays 200 μl P. pastoris cells are pelleted and resuspended in 100 μl 50 mM Tricine pH 7.9 and 0.35 μCi [U-^14C]-L-valine or L-isoleucine. After incubation for 30 minutes at 30° C. the cells are extracted with ethyl acetate and the products formed are analyzed as above.
CYP79D1 is reconstituted with sorghum NADPH-P450 oxidoreductase in the presence of high amounts of the lipid L-α-dioleyl phosphatidylcholine and 100 mM NaCl. […] To examine the effect of inhibitors on isolated CYP79D1, reconstitutions are performed in the presence of tetcyclasis, ABT and DPI using the same conditions as for cassava microsomes.

CYP79D2 = target: T3, CYP79D2 (Manihot esculenta, UniProt Q9M7B7); assay type: biochemical, cassava
T3 construct: made in house
Experimental: Investigations into the substrate specificity of CYP79D1, CYP79D2, CYP79E1, CYP79E2, CYP79A2, CYP79B2, CYP79B5 and CYP79F1 are carried out in E. coli spheroplasts reconstituted with sorghum NADPH-cytochrome P450 oxidoreductase in the presence of high amounts of lipids. L-α-dioleyl phosphatidyl choline and L-α-dilauroyl phosphatidyl choline are preferred lipids for the reconstitution. […] Depending on the nature of the substrate, substrate specificity may also be determined using intact P. pastoris cells or intact E. coli cells.
The ability of a P450 monooxygenase to convert an aliphatic or aromatic amino acid or chain-elongated methionine homologue to the corresponding oxime can be tested in an assay (see also example 5) comprising
a) incubating a reaction mixture comprising the P450 monooxygenase of the present invention or spheroplasts of E.coli cells expressing said enzyme, the parent amino acid, NADPH, oxygen, NADPH-cytochrome P450 oxidoreductase and lipid at ambient temperature for a certain period of time which is between 2 min and 2 to 6 hours;
b) terminating the reaction for example by the addition of a denaturing compounds such as ethyl acetate; and
c) chemically identifying and quantifying the aldoxime produced.

[1] = substrate: N[C@@H](Cc1ccccc1)C(=O)O; test: purified protein, by the assay type; conditions: other: spheroplasts expressing 'native' CYP79A2, 2 hours at 26° C., pH 7.5

CYP79D1, sequence (Q9M7B8 2-542): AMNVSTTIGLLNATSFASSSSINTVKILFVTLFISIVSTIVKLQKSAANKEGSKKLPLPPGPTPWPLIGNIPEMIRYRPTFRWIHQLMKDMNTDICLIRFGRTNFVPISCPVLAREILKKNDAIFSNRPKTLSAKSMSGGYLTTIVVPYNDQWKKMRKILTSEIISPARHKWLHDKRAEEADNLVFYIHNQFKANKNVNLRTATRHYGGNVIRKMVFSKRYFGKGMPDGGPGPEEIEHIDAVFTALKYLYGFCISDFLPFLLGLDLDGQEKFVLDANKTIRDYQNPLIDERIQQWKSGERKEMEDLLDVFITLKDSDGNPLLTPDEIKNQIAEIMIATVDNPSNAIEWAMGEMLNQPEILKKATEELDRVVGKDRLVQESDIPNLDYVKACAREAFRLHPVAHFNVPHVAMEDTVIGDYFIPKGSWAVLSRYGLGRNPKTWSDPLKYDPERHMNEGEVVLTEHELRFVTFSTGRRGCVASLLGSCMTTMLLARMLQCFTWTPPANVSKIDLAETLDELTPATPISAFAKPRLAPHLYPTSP
CYP79F1, sequence (Q949U1 whole entry M2A): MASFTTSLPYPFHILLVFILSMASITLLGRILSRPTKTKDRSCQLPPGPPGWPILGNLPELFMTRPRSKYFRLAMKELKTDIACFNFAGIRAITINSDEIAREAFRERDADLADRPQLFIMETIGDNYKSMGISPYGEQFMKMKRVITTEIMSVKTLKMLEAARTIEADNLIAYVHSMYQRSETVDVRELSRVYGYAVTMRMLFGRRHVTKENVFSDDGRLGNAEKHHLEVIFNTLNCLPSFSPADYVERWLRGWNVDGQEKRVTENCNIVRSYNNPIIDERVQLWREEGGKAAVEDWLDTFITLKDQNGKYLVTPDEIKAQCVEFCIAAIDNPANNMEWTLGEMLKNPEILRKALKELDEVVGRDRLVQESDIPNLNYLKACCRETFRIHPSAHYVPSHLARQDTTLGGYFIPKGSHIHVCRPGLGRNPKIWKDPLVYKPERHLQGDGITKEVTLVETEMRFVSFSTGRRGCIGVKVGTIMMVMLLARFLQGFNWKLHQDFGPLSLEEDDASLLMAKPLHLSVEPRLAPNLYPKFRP
T3 sequence (Q9M7B7 whole entry): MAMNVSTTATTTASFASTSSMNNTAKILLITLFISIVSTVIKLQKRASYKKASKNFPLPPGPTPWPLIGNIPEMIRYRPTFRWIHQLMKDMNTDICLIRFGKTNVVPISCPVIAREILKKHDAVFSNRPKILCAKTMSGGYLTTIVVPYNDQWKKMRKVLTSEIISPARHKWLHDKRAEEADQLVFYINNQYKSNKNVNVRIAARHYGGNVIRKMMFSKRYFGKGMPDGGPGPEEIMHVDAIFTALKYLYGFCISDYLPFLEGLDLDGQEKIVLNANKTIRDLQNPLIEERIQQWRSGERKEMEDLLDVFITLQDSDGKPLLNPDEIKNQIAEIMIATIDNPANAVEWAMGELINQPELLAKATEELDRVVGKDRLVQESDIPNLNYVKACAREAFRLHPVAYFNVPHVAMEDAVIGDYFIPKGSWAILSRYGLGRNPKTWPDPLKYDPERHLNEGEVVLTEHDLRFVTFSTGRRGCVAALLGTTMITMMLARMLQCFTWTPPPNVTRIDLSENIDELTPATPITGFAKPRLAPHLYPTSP

CSCCCCC(N)C(=O)O (racemic) [DL-dihomomethionine]
formation of the corresponding aldoxime by CYP79F1 (CYP79F1): two compounds, which are not present in the control reactions, are detected by GC-MS

NC(CCc1ccccc1)C(=O)O (racemic) [DL-homophenylalanine]
production of the respective aldoxime by CYP79A2 (CYP79A2): absence of detectable amounts of the homophenylalanine-derived aldoxime

CSCCCCCC(N)C(=O)O (racemic) [DL-trihomomethionine]
formation of the corresponding aldoxime by CYP79F1 (CYP79F1): two compounds with retention times and fragmentation pattern identical with those of the E/Z-isomers of the synthetic 6-methylthiopentanaldoxime are detected

Oc1ccc(Cl)cc1Cl [2,4-dichlorophenol, reference compound]
inhibition of CYP79B2 activity (CYP79B2; 100 mM H2O2, 1 mM MnCl2 or 800 μM 2,4-dichlorophenol added to reconstitution assay): 72%

CC[C@@H](C)[C@@H](N)C(=O)O [D-isoleucine]
metabolism / cyanide production by cassava microsomes (cassava microsomes): no metabolism is observed

CC(C)[C@@H](N)C(=O)O [D-valine]
binding to the active site of CYP79D1 (competition with 14C-L-valine) (CYP79D1): does not bind with high affinity
formation of the corresponding oxime / metabolism by CYP79D1 (CYP79D1): neither the cassava microsomes nor isolated CYP79D1 metabolize
metabolism / cyanide production by cassava microsomes (cassava microsomes): no metabolism is observed

c1ccc2c(c1)[I+]c1ccccc1-2 [DPI, reference compound]
inhibition of CYP79D1 val-oxime formation (CYP79D1): completely inhibits

CC[C@H](C)[C@H](N)C(=O)O [L-isoleucine]
conversion rate relative to L-valine (CYP79D1): approximately 60%
formation of the corresponding oxime / metabolism by CYP79D1 (CYP79D1): corresponding oximes are formed
conversion to the corresponding oxime by CYP79D2 (CYP79D2): found to convert
metabolism / cyanide production by cassava microsomes (cassava microsomes): cyanide is produced

CSCC[C@H](N)C(=O)O [L-methionine]
production of the respective aldoxime by CYP79A2 (CYP79A2): does not result in production of detectable amounts of the respective aldoximes
formation of the corresponding aldoxime by CYP79F1 (CYP79F1): did not result in the formation of detectable amounts of the corresponding aldoximes

N[C@@H](Cc1ccccc1)C(=O)O [L-phenylalanine]
oxime production by CYP79B2 (CYP79B2; radiolabelled amino acid, TLC): No oxime producing activity is detected
production of the respective aldoxime by CYP79A2 (CYP79A2; TLC or GC-MS detection): produce two radiolabelled compounds which comigrate with the (E)- and (Z)-isomers of phenylacetaldoxime
formation of the corresponding aldoxime by CYP79F1 (CYP79F1): did not result in the formation of detectable amounts of the corresponding aldoximes
conversion to the corresponding oxime by CYP79D2 (CYP79D2): Neither L-Leucine, L-phenylalanine nor L-tyrosine are metabolized

CC(C)[C@H](N)C(=O)O [L-valine]
formation of the corresponding oxime / metabolism by CYP79D1 (CYP79D1): corresponding oximes are formed
conversion to the corresponding oxime by CYP79D2 (CYP79D2): found to convert
metabolism / cyanide production by cassava microsomes (cassava microsomes): cyanide is produced

CCCCCCCC/C=C\CCCCCCCC(=O)OCCOCC(OCCO)C1OCC(OCCO)C1OCCO (stereo not drawn) [Tween 80]
increase in aldoxime production (CYP79A2; additive at final concentration 0.083% (v/v)): 1.5 fold

N[C@@H](CCC(=O)N[C@@H](CS)C(=O)NCC(=O)O)C(=O)O [reduced glutathione]
increase of CYP79B2 activity (CYP79B2; addition of 1.5 mM): 1.8 fold
effect on aldoxime production (CYP79A2; additive at final concentration 3 mM): stimulates aldoxime production, but to a lesser extent

Clc1ccc(N2N=NC3C4CC(C5N=NC45)C32)cc1 (stereo not drawn) [tetcyclasis, reference compound]
inhibition of CYP79D1 val-oxime formation (CYP79D1): inhibited

B1: CYP79A2 (Arabidopsis thaliana) (protein)
chain: MLAFIIGLLLLALTMKRKEKKKTMLISPTRNLSLPPGPKSWPLIGNLPEILGRNKPVFRWIHSLMKELNTDIACIRLANTHVIPVTSPRIAREILKKQDSVFATRPLTMGTEYCSRGYLTVAVEPQGEQWKKMRRVVASHVTSKKSFQMMLQKRTEEADNLVRYINNRSVKNRGNAFVVIDLRLAVRQYSGNVARKMMFGIRHFGKGSEDGSGPGLEEIEHVESLFTVLTHLYAFALSDYVPWLRFLDLEGHEKVVSNAMRNVSKYNDPFVDERLMQWRNGKMKEPQDFLDMFIIAKDTDGKPTLSDEEIKAQVTELMLATVDNPSNAAEWGMAEMINEPSIMQKAVEEIDRVVGKDRLVIESDLPNLNYVKACVKEAFRLHPVAPFNLPHMSTTDTVVDGYFIPKGSHVLISRMGIGRNPSVWDKPHKFDPERHLSTNTCVDLNESDLNIISFSAGRRGCMGVDIGSAMTYMLLARLIQGFTWLPVPGKNKIDISESKNDLFMAKPLYAVATPRLAPHVYPT
Km [1]: 6.7 μmol I^−1

Reference: patent US20030166202A1, “P450 Monooxygenases of the cyp79 family” (priority 2000, published 2003)
